Measurements as given in patent publication US7807662B2, “Platinum IV complex inhibitor” (University of South Florida, priority 2004, dated 2010).

Tests used:
E2F1 = E2F1 (Homo sapiens, UniProt Q01094); assay: In vitro DNA-binding activity assay with EMSA, E2F1 (control); format: biochemical; conditions: DHFR promoter sequence probe
From the text: In control studies, the effect of IS3 295 was investigated on the DNA-binding activity of E2F1 that was unrelated to Stat proteins.

Stat3 [1] = target: T1, Stat3 (Homo sapiens, UniProt P40763); assay: In vitro DNA-binding activity assay with EMSA, Stat3; format: biochemical; conditions: hSIE probe, pre-incubation with compound
T1 construct: nuclear extracts of equal total protein containing active Stat1, Stat3 and Stat5 were pre-incubated with different concentrations of IS3 295; endogenous in cells; host or cells: nuclear extracts
T1 sequence (P40763 2-770 limits assumed, species assumed): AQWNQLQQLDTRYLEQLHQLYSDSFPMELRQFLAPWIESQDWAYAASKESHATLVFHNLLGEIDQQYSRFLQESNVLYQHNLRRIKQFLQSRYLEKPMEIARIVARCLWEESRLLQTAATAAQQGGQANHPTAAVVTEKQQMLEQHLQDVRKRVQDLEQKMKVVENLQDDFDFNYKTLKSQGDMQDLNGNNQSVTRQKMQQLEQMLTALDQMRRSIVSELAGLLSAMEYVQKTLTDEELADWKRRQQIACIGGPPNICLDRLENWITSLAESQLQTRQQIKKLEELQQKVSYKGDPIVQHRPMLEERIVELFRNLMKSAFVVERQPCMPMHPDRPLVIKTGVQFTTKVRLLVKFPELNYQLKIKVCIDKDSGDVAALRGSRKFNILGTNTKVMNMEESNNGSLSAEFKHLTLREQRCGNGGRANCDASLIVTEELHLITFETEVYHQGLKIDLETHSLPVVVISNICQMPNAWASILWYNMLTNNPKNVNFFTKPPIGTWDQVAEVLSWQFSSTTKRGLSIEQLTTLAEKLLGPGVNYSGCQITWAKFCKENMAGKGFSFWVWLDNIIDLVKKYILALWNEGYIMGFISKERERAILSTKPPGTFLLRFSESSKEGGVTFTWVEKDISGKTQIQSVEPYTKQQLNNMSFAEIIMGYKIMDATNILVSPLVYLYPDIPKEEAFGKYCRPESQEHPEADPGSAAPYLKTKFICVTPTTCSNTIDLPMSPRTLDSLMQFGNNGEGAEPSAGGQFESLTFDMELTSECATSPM
Experimental: (§1) Nuclear extract preparation and gel shift assays—Nuclear extract preparation from v-Src-transformed fibroblasts (NIH3T3/v-Src) or tumor cell lines and electrophoretic mobility shift assay were carried out as previously described (11, 13, 37). The ^32P-labeled oligonucleotide probes used were hSIE (high affinity sis-inducible element, m67 variant, 5′-[…]) (SEQ ID NO:1) that bound Stat1 and Stat3 (13, 45) and MGFe (mammary gland factor element from the bovine β-casein gene promoter, 5′-AGATTTCTAGGAATTCAA) (SEQ ID NO:2) for Stat1 and Stat5 binding (46, 47). Except where indicated, inhibitor compound was pre-incubated with the nuclear extract for 30 minutes at room temperature prior to incubation with radiolabeled probe.
(§2) Compounds from the NCI diversity set were evaluated for inhibition of Stat3 signaling in in vitro DNA-binding activity assay with analysis of electrophoretic mobility shift assay (EMSA). A platinum (IV) complex, IS3 295 (NSC 295558) (FIG. 1E), was identified as potent inhibitor of Stat3, which was further characterized in a number of assays for its anti-Stat3 property. […]

Stat3 [2] = target: T1, Stat3; conditions: from reference 35; cited from earlier work
Stat1 = target: T2, Stat1 (Homo sapiens, UniProt P42224); assay: In vitro DNA-binding activity assay with EMSA, Stat1; format: biochemical; conditions: hSIE probe, pre-incubation with compound
T2 construct: nuclear extracts of equal total protein containing active Stat1, Stat3 and Stat5 were pre-incubated with different concentrations of IS3 295; endogenous in cells; host or cells: nuclear extracts
T2 sequence (P42224 2-750 limits assumed): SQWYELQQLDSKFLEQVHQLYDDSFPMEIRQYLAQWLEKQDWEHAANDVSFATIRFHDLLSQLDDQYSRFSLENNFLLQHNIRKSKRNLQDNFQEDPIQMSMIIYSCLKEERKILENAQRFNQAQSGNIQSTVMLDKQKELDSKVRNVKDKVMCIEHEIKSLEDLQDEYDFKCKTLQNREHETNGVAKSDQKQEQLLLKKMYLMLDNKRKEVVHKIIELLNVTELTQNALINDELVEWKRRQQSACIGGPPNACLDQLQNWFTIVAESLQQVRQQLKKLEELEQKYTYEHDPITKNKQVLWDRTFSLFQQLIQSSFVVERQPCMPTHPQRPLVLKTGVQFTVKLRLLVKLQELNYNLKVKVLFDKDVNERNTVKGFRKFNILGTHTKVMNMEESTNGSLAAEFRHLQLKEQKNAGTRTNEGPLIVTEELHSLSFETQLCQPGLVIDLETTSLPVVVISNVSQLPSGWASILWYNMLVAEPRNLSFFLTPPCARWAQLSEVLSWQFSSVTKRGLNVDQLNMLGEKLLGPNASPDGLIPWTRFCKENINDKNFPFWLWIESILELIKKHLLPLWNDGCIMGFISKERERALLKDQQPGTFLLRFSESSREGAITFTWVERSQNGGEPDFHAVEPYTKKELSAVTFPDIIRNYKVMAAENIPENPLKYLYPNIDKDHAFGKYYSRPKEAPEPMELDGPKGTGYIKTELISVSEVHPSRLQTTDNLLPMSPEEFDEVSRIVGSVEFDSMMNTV
Experimental: as §1, §2

Stat5 = assay: In vitro DNA-binding activity assay with EMSA, Stat5; format: biochemical; conditions: MGFe probe
Experimental: as §1, §2

Sequence of E2F1 (Q01094 whole entry, species assumed): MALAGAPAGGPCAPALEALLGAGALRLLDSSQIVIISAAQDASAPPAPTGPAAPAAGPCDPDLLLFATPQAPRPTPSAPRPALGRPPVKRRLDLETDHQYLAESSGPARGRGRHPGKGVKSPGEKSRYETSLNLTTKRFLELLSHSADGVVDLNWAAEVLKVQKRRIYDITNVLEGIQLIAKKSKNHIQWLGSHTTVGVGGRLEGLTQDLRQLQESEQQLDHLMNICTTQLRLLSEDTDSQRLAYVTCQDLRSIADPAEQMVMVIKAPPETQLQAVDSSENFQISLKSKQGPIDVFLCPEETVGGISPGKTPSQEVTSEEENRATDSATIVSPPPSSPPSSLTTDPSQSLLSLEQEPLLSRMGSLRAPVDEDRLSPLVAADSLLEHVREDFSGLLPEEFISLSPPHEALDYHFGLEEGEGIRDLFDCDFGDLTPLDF

N.N.[Cl][Pt][Cl] [cisplatin, reference compound]
E2F1 DNA-binding activity (E2F1): no detectable effect
level of DNA-binding activity of Stat3 (Stat3 [1]): no detectable effect
effect on Stat3 activity (Stat3 [2]): no effect
level of DNA-binding activity of Stat1 (Stat1): no detectable effect
level of DNA-binding activity of Stat5:Stat5 dimers (Stat5): no detectable effect
